Test results as given in patent publication US20240156733A1, “METHODS OF PREPARATION OF NOVEL PAN TLR ANTAGONISTIC LIPOSOMAL-LNP FORMULATIONS AND USES THEREOF” (Celestial Therapeutics Inc., priority 2022, published 2024).
Entries after “also recorded” stand apart in the source; their conditions may differ.

Key:
MD-2 = molecular target: T1, MD-2 (Homo sapiens, UniProt Q9Y6Y9); settings: prevents association with TLR-4; cited from earlier work
T1 sequence (Q9Y6Y9 19-160): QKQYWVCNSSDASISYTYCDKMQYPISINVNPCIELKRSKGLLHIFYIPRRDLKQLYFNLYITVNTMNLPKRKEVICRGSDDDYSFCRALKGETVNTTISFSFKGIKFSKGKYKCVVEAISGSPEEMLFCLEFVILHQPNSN

IL8 = experiment: Suppression of inflammation mediated by IL8 (data not shown)
Source text: (§1) The Journal of Biological Chemistry 294, 4282 […]; Numata, M. & Voelker, D. R. Anti-inflammatory and anti-viral actions of anionic pulmonary surfactant phospholipids. Biochimica et Biophysica Acta (BBA)—Molecular and CEll Biology of Lipids 1867, 159139 (2022) Mueller, M., Brandenburg, K., Dedrick, R., Schromm, A. B. & Seydel, U. Phospholipids Inhibit Lipopolysaccharide (LPS)-Induced Cell Activation: A Role for LPS-Binding Protein. The Journal of Immunology 174, 1091-1096 (2005); K, K. et al. Anionic pulmonary surfactact phospholipids inhibit inflammatory response from alveolar macrophages and U937 cells by binding the lipopolysaccharide-interacting proteins CD14 and MD-2. J Biol Chem 284, 25488-25500 (2009)]. MD-2 and CD14 are molecular components that are responsible for facilitating the downstream intracellular signaling of TLR4 mediated inflammation. POPG binding to MD-2 and CD-14 will disrupt the downstream TLR signaling and prevent the inflammatory response [Berger, M. de Boer, J. D, van der Poll, T., Sterk, P. J. & van der Zee, J. S. Local coagulation activation following bronchial instillation of house dust mite allergen (HDM) and HDM/Lipopolysaccharide (LPS) in mild asthmatics. European Respiratory Journal 40. (2012)].

CD14 = molecular target: T2, CD14 (Homo sapiens, UniProt P08571); settings: prevents association with TLR-4; cited from earlier work
T2 sequence (P08571 20-345): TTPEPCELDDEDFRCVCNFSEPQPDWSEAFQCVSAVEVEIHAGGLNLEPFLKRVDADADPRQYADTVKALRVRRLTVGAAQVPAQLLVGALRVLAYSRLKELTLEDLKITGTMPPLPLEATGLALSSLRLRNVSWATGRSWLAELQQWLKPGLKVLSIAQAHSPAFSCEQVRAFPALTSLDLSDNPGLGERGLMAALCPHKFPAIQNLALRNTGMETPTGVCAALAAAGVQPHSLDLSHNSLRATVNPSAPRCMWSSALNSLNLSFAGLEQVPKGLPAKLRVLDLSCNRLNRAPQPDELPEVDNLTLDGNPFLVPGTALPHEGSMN

[1] = test system: RAW264.7 murine macrophage cells; experiment: TNFα production with TLR agonists in RAW264.7 macrophages, POPG treatment; format: cell-based; settings: TLR agonist stimulated RAW264.7 cells, after 24 h of POPG treatment, FIG. 1
Source text: as §1

For `CCCCCCCC/C=C\CCCCCCCC(=O)O[C@H](COC(=O)CCCCCCCCCCCCCCC)COP(=O)(O)OCC(O)CO` (stereo partly shown) [POPG, palmitoyloleoylphosphatidylglycerol], the “binding to MD-2” value (MD-2) is listed as “preferentially bind”, the “suppression of inflammation mediated by IL8” value (IL8) is listed as “suppression of inflammation” and the “binding to CD14” value (CD14) is listed as “preferentially bind”. The TNFα production [1] was “reduces TNFα production; also recorded: suppression of inflammation mediated by TNFα”.
